The NIST ThermoML archive (doi:10.1021/je800047t)
Several values for one entry are separate records, joined by “and”; a condition that tells them apart may be missing. Equal values may be shown once.

Test: molar heat capacity at constant pressure
Conditions: 101.33 kPa, Small sample (50 mg) DSC

O[C@H]1CC[C@H](O)CC1 [trans-1,4-cyclohexanediol]
Conditions | molar heat capacity at constant pressure
176.5 K, Crystal | 100.6 J/K/mol
183.2 K, Crystal | 105.6 J/K/mol
189.1 K, Crystal | 109.5 J/K/mol
198.9 K, Crystal | 115.4 J/K/mol
206.9 K, Crystal | 115.6 J/K/mol
215 K, Crystal | 121 J/K/mol
222.2 K, Crystal | 124.6 J/K/mol
230.2 K, Crystal | 127.3 J/K/mol
238.3 K, Crystal | 135.4 J/K/mol
258.3 K, Crystal | 142.2 J/K/mol
273.2 K, Crystal | 145.6 J/K/mol
278.1 K, Crystal | 148.8 J/K/mol and 150.6 J/K/mol and 149 J/K/mol
283.2 K, Crystal | 151 J/K/mol and 151.1 J/K/mol
288.2 K, Crystal | 154 J/K/mol
293.2 K, Crystal | 156.4 J/K/mol and 157.4 J/K/mol
303.2 K, Crystal | 167 J/K/mol
308.1 K, Crystal | 168.1 J/K/mol and 169.9 J/K/mol
313.2 K, Crystal | 173 J/K/mol
323.3 K, Crystal | 174 J/K/mol
333.1 K, Crystal | 177.4 J/K/mol
343.2 K, Crystal | 181.4 J/K/mol and 183.9 J/K/mol
353.1 K, Crystal | 187.1 J/K/mol
363.2 K, Crystal | 190.5 J/K/mol
373.2 K, Crystal | 198 J/K/mol
393.1 K, Liquid | 310.7 J/K/mol
403.2 K, Liquid | 313 J/K/mol

O[C@@H]1CCCC[C@@H]1O [cis-1,2-cyclohexanediol]
Conditions | molar heat capacity at constant pressure
174.3 K, Crystal 2 | 89.6 J/K/mol
185.2 K, Crystal 2 | 92.7 J/K/mol
193.1 K, Crystal 2 | 100 J/K/mol
202.2 K, Crystal 2 | 101.1 J/K/mol
215.9 K, Crystal 2 | 111 J/K/mol
230.1 K, Crystal 2 | 121.1 J/K/mol
248.1 K, Crystal 2 | 127.3 J/K/mol
259.2 K, Crystal 2 | 134.9 J/K/mol
266.2 K, Crystal 2 | 138.2 J/K/mol
273.1 K, Crystal 2 | 141.4 J/K/mol
278.2 K, Crystal 2 | 148.8 J/K/mol
283 K, Crystal 2 | 151.1 J/K/mol
288.2 K, Crystal 2 | 152 J/K/mol and 154.2 J/K/mol
293.2 K, Crystal 2 | 157.8 J/K/mol and 157.6 J/K/mol
298.1 K, Crystal 2 | 160.4 J/K/mol
300.2 K, Crystal 2 | 162 J/K/mol and 163.9 J/K/mol
308.2 K, Crystal 2 | 168 J/K/mol and 166.4 J/K/mol
316 K, Crystal 2 | 171.9 J/K/mol
323.3 K, Crystal 2 | 175 J/K/mol
328.2 K, Crystal 2 | 177.2 J/K/mol
333.2 K, Crystal 2 | 180.8 J/K/mol
339.2 K, Crystal 2 | 184.3 J/K/mol
344.1 K, Crystal 2 | 186.2 J/K/mol
346.3 K, Crystal 2 | 190 J/K/mol
348.1 K, Crystal 2 | 191.8 J/K/mol
350.2 K, Crystal 2 | 192.5 J/K/mol
363.1 K, Crystal 1 | 279.6 J/K/mol
366.2 K, Crystal 1 | 284.9 J/K/mol
367.2 K, Crystal 1 | 290.4 J/K/mol
368.2 K, Crystal 1 | 292.8 J/K/mol
378.1 K, Liquid | 297.9 J/K/mol
383.2 K, Liquid | 300 J/K/mol
385.2 K, Liquid | 302.5 J/K/mol
388 K, Liquid | 304.1 J/K/mol
393.2 K, Liquid | 305 J/K/mol
397.3 K, Liquid | 306.3 J/K/mol
403.1 K, Liquid | 310.5 J/K/mol
413.2 K, Liquid | 312.8 J/K/mol
